The results in this text go back to ChEMBL document CHEMBL2146461, “Synthesis and antiplasmodial activity of new heteroaryl derivatives of 7-chloro-4-aminoquinoline” (Bioorg Med Chem, 2012).

Each structure is given as a SMILES string.

For data set [1], the system named is Plasmodium falciparum. In words: Antiplasmodial activity against chloroquine-resistant Plasmodium falciparum W2 infected in human red blood cells after 72 hrs by parasite lactate dehydrogenase assay. It is filed as functional, organism-based. As to conditions: W2, 72 h.
Data set [2] is described as follows: Lipophilicity, log P of the compound at pH 7.4. It is filed as physicochemical. As to conditions: buffer.
Data set [3] deals with Plasmodium falciparum. The data set can be described thus: Ratio of chloroquine IC50 to compound IC50 for chloroquine-sensitive Plasmodium falciparum D10. It is filed as functional.
Data set [4] in a line: Resistance index, ratio of IC50 for chloroquine-resistant Plasmodium falciparum W2 to IC50 for chloroquine-sensitive Plasmodium falciparum D10. The class given is functional.
The nature of data set [5]: Selectivity index, ratio of IC50 for human HMEC1 cells to IC50 for chloroquine-resistant Plasmodium falciparum W2. The class given is toxicity, cell-based. As to conditions: read-out: Ratio IC50.
Data set [6] has as its system Plasmodium falciparum. The data set can be described thus: Ratio of chloroquine IC50 to compound IC50 for chloroquine-resistant Plasmodium falciparum W2. It is filed as functional.
In data set [7] the test system is Plasmodium falciparum. In words: Antiplasmodial activity against chloroquine-sensitive Plasmodium falciparum D10 infected in human red blood cells after 72 hrs by parasite lactate dehydrogenase assay. The class given is functional, organism-based. As to conditions: D10, 72 h.
Data set [8] in a line: Cytotoxicity against human HMEC1 cells after 72 hrs by MTT assay. It is filed as cell-based. As to conditions: HMEC-1, 72 h. On the technique in general: Formazan colour is commonly taken as a measure of viable cells.
The nature of data set [9]: n-octanol-KCl distribution coefficient, log D of the compound at pH 7.4. It is filed as physicochemical.

By IC50 is commonly meant the concentration needed to halve the response being measured. A high value points to lower potency. By logP is commonly meant the decadic logarithm of the partition coefficient of the neutral form, usually between octanol and water. The term logD denotes the decadic logarithm of the distribution of all forms, ionised or not, between an organic phase and buffer at a given pH. A low value points to a more hydrophilic compound. `Clc1ccc2c(NCc3nc4ccccc4[nH]3)ccnc2c1`: the figures for the IC50 (with Plasmodium falciparum [1]; with Plasmodium falciparum [7]; in data set [8]) were 0.256 µM, 0.0706 µM and 2.4 µM, respectively. Further, the logP in [2] (read-out: logP) was found to be 3.78. In addition, the “Ratio IC50” value in the data set with Plasmodium falciparum [3] came to 0.2; in [4], 3.6; with Plasmodium falciparum [6] it was 1.68. In [5], the selectivity ratio amounted to 9. This compound had a logD in [9] of 3.56.
For the compound `Fc1ccc(-c2nc(CNc3ccnc4cc(Cl)ccc34)[nH]c2CN2CCCC2)cc1`, the IC50 in the data set with Plasmodium falciparum [1] is 0.197 µM; in the data set on Plasmodium falciparum [7] it was 0.0257 µM. Besides, the log partition coefficient (logP) in data set [2] (read-out: logP) came to 6.78. In addition, the “Ratio IC50” value in the data set on Plasmodium falciparum [3] stood at 0.57; in data set [4], 7.7; in the data set on Plasmodium falciparum [6], 2.11. In [9], the logD stood at 4.77.
`Cn1c(CNc2ccnc3cc(Cl)ccc23)nc(-c2ccccc2)c1CN1CCCC1`: the IC50 amounted to 0.0265 µM in the data set on Plasmodium falciparum [1], 0.0118 µM in the data set with Plasmodium falciparum [7] and 28.6 µM in [8]. This compound also gave a logP in [2] of 9.18. Besides, the “Ratio IC50” value was found to be 1.18 in the data set with Plasmodium falciparum [3], 2.2 in [4] and 16.27 with Plasmodium falciparum [6]. Besides, in [5], the selectivity ratio came out at 1080. In [9], the logD amounted to 7.57.
On to `CCN(CC)Cc1cnc(CNc2ccnc3cc(Cl)ccc23)[nH]1`, for which the IC50 with Plasmodium falciparum [1] is 3.8 µM; in the data set with Plasmodium falciparum [7], 0.191 µM. Moreover, the “Ratio IC50” value with Plasmodium falciparum [3] worked out at 0.07; in [4], 19.9; in the data set on Plasmodium falciparum [6], 0.04.
Take `Cc1ccc(-c2nc(CNc3ccnc4cc(Cl)ccc34)[nH]c2CN2CCCC2)cc1`: the IC50 was 0.0693 µM in the data set with Plasmodium falciparum [1], 0.0074 µM in the data set on Plasmodium falciparum [7] and 3.66 µM in data set [8]. Besides, the logP in [2] (read-out: logP) came out at 6.45. The figures for the “Ratio IC50” value (in the data set on Plasmodium falciparum [3]; in [4]; in the data set with Plasmodium falciparum [6]) were 1.49, 9.4 and 4.17, respectively. Besides, in data set [5], the selectivity ratio stood at 53. The compound also returned a logD in [9] of 4.
On to `Clc1ccc2c(NCc3nc(-c4ccccc4)c[nH]3)ccnc2c1`, for which the IC50 in the data set with Plasmodium falciparum [1] stood at 0.0851 µM; in the data set with Plasmodium falciparum [7], 0.116 µM; in data set [8], 13.1 µM. Also, the logP in [2] (read-out: logP) came to 4.98. The “Ratio IC50” value in the data set on Plasmodium falciparum [3] worked out at 0.14; in data set [4], 0.7; with Plasmodium falciparum [6], 1.78. Also, the selectivity ratio in [5] was found to be 154. The compound also returned a logD in data set [9] of 4.62.
As to `CCN(CC)Cc1[nH]c(CNc2ccnc3cc(Cl)ccc23)nc1-c1ccc(Cl)cc1`, the IC50 came out at 0.0276 µM with Plasmodium falciparum [1], 0.0088 µM in the data set on Plasmodium falciparum [7] and 2.44 µM in data set [8]. Moreover, the “Ratio IC50” value with Plasmodium falciparum [3] stood at 1.25; in data set [4], 3.1; in the data set on Plasmodium falciparum [6], 10.47. In data set [5], the selectivity ratio was 89.
On to `Cn1cc(-c2ccccc2)nc1CNc1ccnc2cc(Cl)ccc12`, for which the results for the IC50 (with Plasmodium falciparum [1]; with Plasmodium falciparum [7]; in [8]) were 0.0703 µM, 0.03 µM and 17.5 µM, respectively. In addition, the logP in data set [2] (read-out: logP) was determined as 4.99. The “Ratio IC50” value with Plasmodium falciparum [3] was 0.46; in data set [4], 2.3; in the data set on Plasmodium falciparum [6], 6.14. Further, in data set [5], the selectivity ratio was 249. The compound also came in with a logD in data set [9] of 4.57.
Take `Clc1ccc2c(Nc3ccc(CN4CCCC4)s3)ccnc2c1`: the IC50 in the data set on Plasmodium falciparum [1] was 4.22 µM; with Plasmodium falciparum [7], 2.66 µM. Further, the logP in data set [2] (read-out: logP) came out at 3.93. Besides, the “Ratio IC50” value was found to be 0.01 with Plasmodium falciparum [3], 1.6 in data set [4] and 0.04 in the data set with Plasmodium falciparum [6]. Also, the logD in [9] stood at 2.98.
As for `Cc1ccc(-c2c[nH]c(CNc3ccnc4cc(Cl)ccc34)n2)cc1`, the half-inhibitory concentration (IC50) in the data set with Plasmodium falciparum [1] was found to be 0.0407 µM; in the data set with Plasmodium falciparum [7], 0.0172 µM; in [8] it was 7.77 µM. Besides, the logP in data set [2] (read-out: logP) was found to be 4.95. Besides, the figures for the “Ratio IC50” value (in the data set with Plasmodium falciparum [3]; in data set [4]; in the data set with Plasmodium falciparum [6]) were 0.64, 2.4 and 7.1, respectively. In data set [5], the selectivity ratio stood at 191. For the same compound, in [9], the logD worked out at 4.66.
`CN(C)c1cccc(-c2c[nH]c(CNc3ccnc4cc(Cl)ccc34)n2)c1`: the IC50 was 0.0535 µM in the data set on Plasmodium falciparum [1], 0.032 µM in the data set on Plasmodium falciparum [7] and 8.97 µM in [8]. In addition, the logP in data set [2] (read-out: logP) was found to be 5.86. The “Ratio IC50” value in the data set on Plasmodium falciparum [3] was 0.46; in data set [4] it was 1.7; with Plasmodium falciparum [6] it was 7.78. In addition, the selectivity ratio in [5] is 168. The compound further showed a logD in data set [9] of 5.48.
For the compound `CCN(CC)Cc1ccc(Nc2ccnc3cc(Cl)ccc23)s1`, the IC50 amounted to 2.58 µM in the data set on Plasmodium falciparum [1] and 1.86 µM in the data set with Plasmodium falciparum [7]. The “Ratio IC50” value was 0.08 in the data set with Plasmodium falciparum [3], 1.4 in data set [4] and 0.06 in the data set with Plasmodium falciparum [6].
On to `Clc1ccc2c(NCc3nc(-c4ccc(N5CCCC5)cc4)c[nH]3)ccnc2c1`, for which the IC50 in the data set on Plasmodium falciparum [1] was 0.0353 µM; in the data set on Plasmodium falciparum [7] it was 0.0182 µM; in data set [8], 2.43 µM. For the same compound, the logP in [2] (read-out: logP) amounted to 8.87. In addition, the figures for the “Ratio IC50” value (in the data set with Plasmodium falciparum [3]; in [4]; in the data set on Plasmodium falciparum [6]) were 0.77, 1.9 and 12.22, respectively. For the same compound, the selectivity ratio in [5] is 69. The same compound yielded a logD in data set [9] of 8.53.
Regarding `Clc1ccc2c(NCc3ncc(CN4CCCC4)[nH]3)ccnc2c1`, the values for the IC50 in the data set with Plasmodium falciparum [1] and in the data set on Plasmodium falciparum [7] were 3.12 µM and 0.399 µM, respectively. Besides, in [2] (read-out: logP), the logP worked out at 4.78. Further, the figures for the “Ratio IC50” value (in the data set on Plasmodium falciparum [3]; in data set [4]; in the data set on Plasmodium falciparum [6]) were 0.04, 7.8 and 0.05, respectively. The logD in [9] came to 1.42.
For `Clc1ccc(-c2c[nH]c(CNc3ccnc4cc(Cl)ccc34)n2)cc1`, the IC50 in the data set with Plasmodium falciparum [1] stood at 0.0605 µM; with Plasmodium falciparum [7], 0.0258 µM; in [8], 7.45 µM. Besides, in data set [2] (read-out: logP), the logP stood at 5.34. In addition, the “Ratio IC50” value in the data set on Plasmodium falciparum [3] was determined as 0.43; in [4], 2.3; in the data set with Plasmodium falciparum [6] it was 4.77. Also, the selectivity ratio in [5] worked out at 123. In data set [9], this compound returned a logD of 5.1.
In the case of `Clc1ccc2c(NCc3nc(-c4ccccc4)c(CN4CCCC4)[nH]3)ccnc2c1`, the IC50 was 0.0916 µM in the data set with Plasmodium falciparum [1], 0.0229 µM in the data set with Plasmodium falciparum [7] and 8.66 µM in [8]. Moreover, the logP in data set [2] (read-out: logP) was 6.35. For the same compound, the “Ratio IC50” value came out at 0.71 with Plasmodium falciparum [3], 4 in [4] and 1.67 with Plasmodium falciparum [6]. The selectivity ratio in [5] was 95. Moreover, the logD in data set [9] is 4.22.
As to `CCN(CC)Cc1[nH]c(CNc2ccnc3cc(Cl)ccc23)nc1-c1ccccc1`, the IC50 was determined as 0.0858 µM in the data set with Plasmodium falciparum [1], 0.028 µM in the data set on Plasmodium falciparum [7] and 9.14 µM in data set [8]. Moreover, the entries for the “Ratio IC50” value (with Plasmodium falciparum [3]; in [4]; in the data set with Plasmodium falciparum [6]) were 0.58, 3.1 and 1.78, respectively. Besides, in [5], the selectivity ratio turned out to be 107.
With `Clc1ccc2c(NCc3nc(-c4ccccc4)c(CN4CCCC4)s3)ccnc2c1`, the IC50 turned out to be 0.0601 µM in the data set on Plasmodium falciparum [1], 0.0193 µM in the data set with Plasmodium falciparum [7] and 30.4 µM in [8]. Further, the logP in data set [2] (read-out: logP) stood at 6.78. Besides, the “Ratio IC50” value in the data set on Plasmodium falciparum [3] is 0.81; in [4], 3.1; in the data set on Plasmodium falciparum [6], 4.93. In data set [5], the selectivity ratio came to 506. The compound further displayed a logD in data set [9] of 6.01.
On to `Clc1ccc2c(NCc3ncc[nH]3)ccnc2c1`, for which the IC50 in the data set on Plasmodium falciparum [1] came out at 0.384 µM; in the data set on Plasmodium falciparum [7], 0.152 µM. For the same compound, the logP in data set [2] (read-out: logP) was found to be 2.82. Also, the “Ratio IC50” value in the data set on Plasmodium falciparum [3] worked out at 0.11; in data set [4], 2.5; in the data set on Plasmodium falciparum [6], 0.39. The same compound registered a logD in [9] of 2.39.
